The structures appear in SMILES notation.

What all share (type): in vivo, rat
For experiment [1], the system named is Dahl rats (salt-sensitive hypertensive rats). The experiment can be described thus: Combined administration of MR antagonist and diuretic: inhibitory action on blood pressure elevation (Example 3). Conditions: male Dahl rats, 8% salt diet, oral for 6 weeks, trough on day 40; compound (Ia) 0.3 mg/kg, hydrochlorothiazide 1 mg/kg, alone or combined; mean±standard error. Here is the method: (§1) Male Dahl rats (DIS/Eis [Dahl-Iwai S], SPF grade, supplier: Japan SLC, Inc., salt-sensitive hypertensive rats) at 7 weeks of age were divided into groups (6 or 9 rats per group).
(§2) In a normal group and a control group, 0.5% methyl cellulose solution was orally administered for 6 weeks, and in the other groups, a test substance was orally administered for 6 weeks. The test substance was suspended in 0.5% methyl cellulose solution and administered at a volume of 2 mL/kg. Additionally, in the groups other than the normal group, an 8% salt diet (FR-2 containing 8% NaCl, manufactured by Funabashi Farm Co., Ltd.) was given ad libitum from the start of administration of the test substance. The composition of the groups, the administered test substances [in the parentheses], and the number of rats (n) per group are as follows. […]
(§3) Systolic blood pressure was measured by using a noninvasive sphygmomanometer for rats and mice (BP-98A, Softron Co., Ltd.) during the trough period at the 6th week of administration of the test substance (on day 40 from the start of administration of the test substance). In addition, on day 41 from the start of administration of the test substance, urine collection for 24-hour was performed using a metabolic cage (2100-R, Watanabe Isolator Systems Co., Ltd.), and the daily urinary protein excretion per body weight was calculated.

The test system is the same in experiment [2]. The experiment can be described thus: Combined administration of MR antagonist and diuretic: inhibitory action on proteinuria (Example 3). Conditions: male Dahl rats, 8% salt diet, oral for 6 weeks, 24-hour urine collection on day 41; compound (Ia) 0.3 mg/kg, hydrochlorothiazide 1 mg/kg, alone or combined; mean±standard error. Here is the method:
as §1, §2, §3

The test system is the same in experiment [3]. Kind of experiment: Combined administration of MR antagonist and calcium antagonist: inhibitory action on blood pressure elevation (Example 2). As to conditions: male Dahl rats, 8% salt diet, oral for 6 weeks, trough on day 41; compound (Ia) 0.1 mg/kg, amlodipine 1 mg/kg, alone or combined; mean±standard error.
Description: In a normal group and a control group, 0.5% methyl cellulose solution was orally administered for 6 weeks, and in the other groups, a test substance was orally administered for 6 weeks. The test substance was suspended in 0.5% methyl cellulose solution and administered at a volume of 2 mL/kg. Additionally, in the groups other than the normal group, an 8% salt diet (FR-2 containing 8% NaCl, manufactured by Funabashi Farm Co., Ltd.) was given ad libitum from the start of administration of the test substance. The composition of the groups, the administered test substances [ in parentheses], and the number of rats (n) per group are as follows.
Group 4: amlodipine administration group [amlodipine (1 mg/kg)] n=6
For experiment [4] the test system is unchanged. Kind of experiment: Combined administration of MR antagonist and angiotensin II receptor antagonist: inhibitory action on blood pressure elevation (Example 1). As to conditions: male Dahl rats, 8% salt diet, oral for 6 weeks, trough on day 42; compound (Ia) 1.0 mg/kg, olmesartan medoxomil 10 mg/kg, alone or combined; mean±standard error. Here is the method:
Male Dahl rats (DIS/Eis [Dahl-Iwai S], SPF grade, supplier: Japan SLC, Inc., salt-sensitive hypertensive rats) at 7 weeks of age were divided into groups (6 rats per group).
In a normal group and a control group, 0.5% methyl cellulose solution was orally administered for 6 weeks, and in the other groups, a test substance was orally administered for 6 weeks. The test substance was suspended in 0.5% methyl cellulose solution and administered at a volume of 2 mL/kg. Additionally, in the groups other than the normal group, an 8% salt diet (FR-2 containing 8% NaCl, manufactured by Funabashi Farm Co., Ltd.) was given ad libitum from the start of administration of the test substance. The composition of the groups and the administered test substances [in parentheses] are as follows.
Group 3: compound (Ia) administration group [compound (Ia) (1.0 mg/kg)]
Group 4: olmesartan medoxomil administration group [olmesartan medoxomil (10 mg/kg)]
Group 5: combined administration group [compound (Ia) (1.0 mg/kg)+olmesartan medoxomil (10 mg/kg)]
The results obtained by measuring systolic blood pressure using a noninvasive sphygmomanometer for rats and mice (BP-98A, Softron Co., Ltd.) during the trough period at the 6th week of administration of the test substance (on day 42 from the start of administration of the test substance) are shown in Table 1 (the values in the table represent mean±standard error).

`Cc1c(C(=O)Nc2ccc(S(C)(=O)=O)cc2)cn(CCO)c1-c1ccccc1C(F)(F)F` (atropisomer, axis not shown) [compound (Ia), (S)-1-(2-hydroxyethyl)-4-methyl-N-[4-(methylsulfonyl)phenyl]-5-[2-(trifluoromethyl)phenyl]-1H-pyrrole-3-carboxamide]: the Systolic blood pressure in experiment [1] is given as 196 ± 7 mmHg; in experiment [3], 207 ± 7 mmHg; in experiment [4], 170 ± 4 mmHg. Moreover, in experiment [2], the “Daily urinary protein excretion” value amounted to 190 ± 16 mg/kg/day.

For `NS(=O)(=O)c1cc2c(cc1Cl)NCNS2(=O)=O` [hydrochlorothiazide, 6-chloro-3,4-dihydro-2H-1,2,4-benzothiadiazine-7-sulfonamide 1,1-dioxide, reference compound], the Systolic blood pressure in experiment [1] stood at 212 ± 3 mmHg. For the same compound, in experiment [2], the “Daily urinary protein excretion” value was 320 ± 65 mg/kg/day.

These data come from patent publication US10111858B2, “Pharmaceutical for prophylaxis or treatment of hypertension” (Daiichi Sankyo Company, Limited, priority 2013, dated 2018).
